Test results taken from US9315475B2 (MERCK SHARP & DOHME CORP., priority 2011, dated 2016).

Each molecule was assayed against T1, wildtype HIV-1 protease (Human immunodeficiency virus type 1 group M subtype B, UniProt P04585) (assay: Assay for inhibition of microbial expressed HIV protease (Pepcleav)). Conditions: wild type HIV-1 protease expressed in E. coli, peptide substrate, pH 5.5; mean of at least two independent experiments; read-out: Pepcleav.
T1 construct: the wildtype HIV-1 protease (which was expressed in Escherichia coli); made in house; host or cells: Escherichia coli
Assay type: biochemical
Protocol: Assay for Inhibition of Microbial Expressed HIV Protease (“Pepcleav”)
Studies of the inhibition of the wildtype HIV-1 protease (which was expressed in Escherichia coli) were carried out with a peptide substrate [Val-Ser-Gln-Asn-(βnaphthyl)Ala-Pro-Ile-Val (SEQ ID NO:1)]. The inhibitor is first preincubated with the HIV-1 protease (wild type) enzyme in assay buffer (50 mM sodium acetate, pH 5.5, 100 mM NaCl, and 0.1% BSA) for 30 minutes at room temperature. Substrate is added to 400 micromolar in a total volume of 20 microliters containing 20 picomolar HIV-1 protease (final) and the reaction is incubated for 1 hour at 30° C. The reaction is quenched with the addition of formic acid and indinavir to 0.012% and 150 nM final concentrations, respectively. The product formation is determined after separation of product and substrate on a Zorbax Eclipse XDB-C 18 column connected to an API 4000 mass spectrometer (Applied Biosystems) with multiple reaction monitoring (transitions were 644.5/428.9 and 615.4/422.2 (M1/M3) for product and indinavir respectively). The extent of inhibition of the reaction is determined from the peak area of the products.

Point of comparison: `N[C@H](C(=O)Nc1cccc(F)c1CC[C@@H]1CN[C@H](COC(=O)NCC(F)(F)F)CO1)[C@H](c1ccc(F)cc1)c1ccc(OC(F)(F)F)cc1` [Example 231, (βS)-β-(4-fluorophenyl)-N-(3-fluoro-2-{2-[(2R,5S)-5-({[(2,2,2-trifluoroethyl)carbamoyl]oxy}methyl)morpholin-2-yl]ethyl}phenyl)-O-(trifluoromethyl)-L-tyrosinamide], IC50 150 nM. Against it:
- N[C@H](C(=O)Nc1ccc(F)cc1CC[C@@H]1CN[C@H](COC(=O)NCC(F)(F)F)CO1)C(c1ccccc1)c1ccccc1 [Example 196, N-(4-fluoro-2-{2-[(2R,5S)-5-({[(2,2,2-trifluoroethyl)carbamoyl]oxy}methyl)morpholin-2-yl]ethyl}phenyl)-β-phenyl-L-phenylalaninamide] — 1.9-fold lower, 79 nM
- COC(=O)N[C@H](C(=O)Nc1ccccc1CC[C@@H]1CN[C@H](CNS(=O)(=O)C2CC2)CO1)C(c1ccccc1)c1ccccc1 [Example 47, methyl N-[(1S)-1-benzhydryl-2-[[2-[2-[(2R,5R)-5-[(cyclopropyl-sulfonylamino)methyl]morpholin-2-yl]ethyl]phenyl]amino]-2-oxo-ethyl]carbamate] — 1.8-fold lower, 84 nM
- COC(=O)N[C@H](C(=O)Nc1ccccc1CC[C@@H]1CN[C@H](CNC(=O)Nc2cccnn2)CO1)C(c1ccccc1)c1ccccc1 [Example 41, methyl N-[(1S)-1-benzhydryl-2-oxo-2-[[2-[2-[(2R,5R)-5-[(pyridazin-3-ylcarbamoyl-amino)methyl]morpholin-2-yl]ethyl]phenyl]amino]ethyl] carbamate] — 52-fold lower, 2.9 nM
- COC(=O)N[C@H](C(=O)Nc1ccccc1CC[C@@H]1CN[C@H](CNC(=O)c2ccccc2Cl)CO1)C(c1ccccc1)c1ccccc1 [Example 55, methyl N-[(1S)-1-benzhydryl-2-[[2-[2-[(2R,5R)-5-[[(2-chloro-benzoyl)amino]methyl]morpholin-2-yl]ethyl]phenyl]amino]-2-oxo-ethyl]carbamate] — 5-fold lower, 30 nM
- COC(=O)N[C@H](C(=O)Nc1ccccc1CC[C@@H]1CN[C@H](CCc2ccccc2NS(=O)(=O)Cc2ccccc2)CO1)C(c1ccccc1)c1ccccc1 [Example 73, N-(2-{2-[(2R,5R)-5-(2-{2-[(benzylsulfonyl)amino]phenyl}ethyl)morpholin-2-yl]ethyl}phenyl)-Nα-(methoxycarbonyl)-β-phenyl-L-phenylalaninamide] — 7.1-fold lower, 21 nM
- N[C@H](C(=O)Nc1cncc(F)c1OC[C@@H]1CN[C@H](COC(=O)NCC(F)(F)F)CO1)C(c1ccc(F)cc1)c1ccc(F)cc1 [Example 203, 4-fluoro-β-(4-fluorophenyl)-N-(5-fluoro-4-{[(2S,5S)-5-({[(2,2,2-trifluoroethyl)carbamoyl]oxy}methyl)morpholin-2-yl]methoxy}pyridin-3-yl)-L-phenylalaninamide] — 5.4-fold lower, 28 nM
- COC(=O)N[C@H](C(=O)Nc1ccccc1CC[C@@H]1CN[C@H](CO)CO1)C(c1ccccc1)c1ccccc1 [Example 61, N-(2-{2-[(2R,5R)-5-(hydroxymethyl)morpholin-2-yl]ethyl}phenyl)-Nα-(methoxycarbonyl)-β-phenyl-L-phenylalaninamide] — within 1.5-fold, 160 nM
- COC(=O)N[C@H](C(=O)Nc1ccccc1CC[C@@H]1CN[C@H](COC(=O)NC(C2CC2)C(F)(F)F)CO1)C(c1ccccc1)c1ccccc1 (stereo partly drawn) [Example 31, N-(2-{2-[(2R,5S)-5-({[(1-cyclopropyl-2,2,2 trifluoroethyl)carbamoyl]oxy}methyl)morpholin-2-yl]ethyl}phenyl)-Nα-(methoxycarbonyl)-β-phenyl-L-phenylalaninamide] — 5.2-fold lower, 29 nM
- COC(=O)N[C@H](C(=O)Nc1cccc(F)c1CC[C@@H]1CN[C@H](COC(=O)NCC(F)(F)F)CO1)[C@H](c1ccc(F)cc1)c1cccc(OC)c1 [Example 306, (βR)-4-fluoro-N-(3-fluoro-2-{2-[(2R, 5S)-5-({[(2,2,2-trifluoroethyl)carbamoyl]oxy}methyl)morpholin-2-yl]ethyl}phenyl)-Nα-(methoxy-carbonyl)-β-(3-methoxyphenyl)-L-phenylalaninamide] — within 1.5-fold, 170 nM
- COC(=O)N[C@H](C(=O)Nc1ccccc1CC[C@@H]1CN[C@H](COc2ccccc2)CO1)C(c1ccccc1)c1ccccc1 [Example 63, Nα-(methoxycarbonyl)-N-(2-{2-[(2R,5S)-5-(phenoxymethyl)morpholin-2-yl]ethyl}phenyl)-β-phenyl-L-phenylalaninamide] — 3.1-fold lower, 49 nM
- COC(=O)N[C@H](C(=O)Nc1ccccc1CC[C@@H]1CN[C@H](COC(=O)NCC(F)(F)F)CO1)C(c1ccccc1)c1ccccc1 [Example 17, methyl N-[(1S)-1-benzhydryl-2-oxo-2-[[2-[2-[(2R,5S)-5-(2,2,2-trifluoroethylcarbamoyloxymethyl)morpholin-2-yl]ethyl]phenyl]amino]ethyl]carbamate] — 5.6-fold lower, 27 nM
- N[C@@H](Cc1cccc2ccccc12)C(=O)Nc1cncc(F)c1CC[C@@H]1CN[C@H](COC(=O)NCC(F)(F)F)CO1 [Example 190, {(3S,6R)-6-[2-(3-{[(2S)-2-amino-3-naphthalen-1-ylpropanoyl]amino}-5-fluoropyridin-4-yl)ethyl]morpholin-3-yl}methyl (2,2,2-trifluoroethyl)carbamate (non-preferred name)] — 3.4-fold higher, 510 nM
- COC(=O)N[C@H](C(=O)Nc1ccccc1CC[C@@H]1CN[C@H](COC(=O)NCc2ccccc2F)CO1)C(c1ccccc1)c1ccccc1 [Example 12, N-(2-{2-[(2R,5S)-5-({[(2-fluorobenzyl)carbamoyl]oxy}methyl)morpholin-2-yl]ethyl}phenyl)-Nα-(methoxycarbonyl)-β-phenyl-L-phenylalaninamide] — 42-fold lower, 3.6 nM
- COC(=O)N[C@H](C(=O)Nc1ccccc1CC[C@@H]1CN[C@H](CNS(=O)(=O)c2ccc3cnnn3c2)CO1)C(c1ccccc1)c1ccccc1 [Example 45, methyl N-[(1S)-1-benzhydryl-2-oxo-2-[[2-[2-[(2R,5R)-5-[(triazolo[1,5-a]pyridin-6-ylsulfonylamino)methyl]morpholin-2-yl]ethyl]phenyl]amino]ethyl]carbamate] — 7.1-fold lower, 21 nM
- CCN(CC)C(=O)OC[C@@H]1CO[C@H](CCc2ccccc2NC(=O)[C@@H](NC(=O)OC)C(c2ccccc2)c2ccccc2)CN1 [Example 25] — within 1.5-fold, 120 nM
- COC(=O)N[C@H](C(=O)Nc1ccccc1CC[C@@H]1CN[C@H](C(=O)Nc2ccccc2)CO1)C(c1ccccc1)c1ccccc1 [Example 7, Nα-(methoxycarbonyl)-β-phenyl-N-(2-{2-[(2R,5S)-5-(phenylcarbamoyl)morpholin-2-yl]ethyl}phenyl)-L-phenylalaninamide] — 190-fold lower, 0.8 nM
- COC(=O)N[C@H](C(=O)Nc1ccccc1CC[C@@H]1CN[C@H](CNC(=O)Nc2ccccn2)CO1)C(c1ccccc1)c1ccccc1 [Example 42, methyl N-[(1S)-1-benzhydryl-2-oxo-2-[[2-[2-[(2R,5R)-5-[(2-pyridylcarbamoylamino)methyl]morpholin-2-yl]ethyl]phenyl]amino]ethyl]carbamate] — 8.8-fold lower, 17 nM
- COC(=O)N[C@H](C(=O)Nc1ccccc1CC(F)[C@@H]1CN[C@H](COC(=O)NCc2ccc(F)cc2)CO1)C(c1ccccc1)c1ccccc1 (stereo partly drawn) [Example 78, N-(2-{2-fluoro-2-[(2S,5S)-5-({[(4-fluorobenzyl)carbamoyl]oxy}methyl)morpholin-2-yl]ethyl}phenyl)-Nα-(methoxycarbonyl)-β-phenyl-L-phenylalaninamide] — 2.5-fold lower, 59 nM
- COC(=O)N[C@H](C(=O)Nc1c(CC[C@@H]2CN[C@H](COC(=O)NCc3ccc(F)cc3)CO2)cc[nH]c1=O)C(c1ccccc1)c1ccccc1 [Example 38, N-(4-{2-[(2R,5S)-5-({[(4-fluorobenzyl)carbamoyl]oxy}methyl)morpholin-2-yl]ethyl}-2-oxo-1,2-dihydropyridin-3-yl)-Nα-(methoxycarbonyl)-β-phenyl-L-phenylalaninamide] — 250-fold lower, 0.6 nM
- N[C@H](C(=O)Nc1cccc(F)c1CC[C@@H]1CN[C@H](COC(=O)NCc2ccncc2)CO1)C(c1ccc(F)cc1)c1ccc(F)cc1 [Example 198, 4-fluoro-β-(4-fluorophenyl)-N-(3-fluoro-2-{2-[(2R,5S)-5-({[(pyridin-4-ylmethyl)carbamoyl]oxy}methyl)morpholin-2-yl]ethyl}phenyl)-L-phenylalaninamide] — 3.4-fold lower, 44 nM
- O=C(NCC(F)(F)F)OC[C@@H]1CO[C@H](CCc2c(F)cncc2NC(=O)[C@@H](NC(=O)OCC(F)(F)F)C(c2ccc(F)cc2)c2ccc(F)cc2)CN1 [Example 141, 4-Fluoro-β-(4-fluorophenyl)-N-(5-fluoro-4-{2-[(2R,5S)-5-({[(2,2,2-trifluoroethyl)carbamoyl]oxy}methyl)morpholin-2-yl]ethyl}pyridin-3-yl)-Nα-[(2,2,2-trifluoroethoxy)carbonyl]-L-phenylalaninamide] — within 1.5-fold, 180 nM
- COC(=O)N[C@H](C(=O)Nc1ccccc1CC[C@@H]1CN[C@H](C(=O)NC(C)(C)C)CO1)C(c1ccccc1)c1ccccc1 [Example 8, N-(2-{2-[(2R,5S)-5-(tert-butylcarbamoyl)morpholin-2-yl]ethyl}phenyl)-Nα-(methoxycarbonyl)-β-phenyl-L-phenylalaninamide] — 3.7-fold lower, 41 nM
- N[C@@H](Cc1ccccc1Cl)C(=O)Nc1cccc(F)c1CC[C@@H]1CN[C@H](COC(=O)NCc2ccc(F)cc2)CO1 [Example 204, 2-chloro-N-(3-fluoro-2-{2-[(2R,5S)-5-({[(4-fluorobenzyl)carbamoyl]oxy}methyl)morpholin-2-yl]ethyl}phenyl)-L-phenylalaninamide] — 5.8-fold lower, 26 nM
